# Data taken from PMC12090182, “Repurposing of the RIPK1-Selective Benzo[1,4]oxazepin-4-one Scaffold for the Development of a Type III LIMK1/2 Inhibitor” (ACS Chemical Biology, 2025).
# What was measured:
# Type in all cases: cell-based
# Details in all cases: HEK-293T; 1 μM inhibitor, HEK293T cells
# IRAK4 = IRAK4 (Homo sapiens, UniProt Q9NWZ3)
# In short: (§1)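 Live-cell NanoBRET: HEK293T, 20 h expression, Tracer K10 (kit-recommended conc.), test compound 1 μM single point; luminescence 450/610 nm; % occupancy per kinase.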
# PRKCE = PRKCE (Homo sapiens, UniProt Q02156)
# In short: as §1
# CDKL2 = CDKL2 (Homo sapiens, UniProt Q92772)
# In short: as §1
# FYN = FYN (Homo sapiens, UniProt P06241)
# In short: as §1
# MYLK2 = MYLK2 (Homo sapiens, UniProt Q9H1R3)
# In short: as §1
# ICK = ICK (Homo sapiens, UniProt Q9UPZ9)
# In short: as §1
# FGFR3 = FGFR3 (Homo sapiens, UniProt P22607)
# In short: as §1
# AURKC = AURKC (Homo sapiens, UniProt Q9UQB9)
# In short: as §1
# PAK4 = PAK4 (Homo sapiens, UniProt O96013)
# In short: as §1
# CDK20 = CDK20 (Homo sapiens, UniProt Q8IZL9)
# In short: as §1
# CSNK2A1 = CSNK2A1 (Homo sapiens, UniProt P68400)
# In short: as §1
# CAMK2D = CAMK2D (Homo sapiens, UniProt Q13557)
# In short: as §1
# JAK3 = JAK3 (Homo sapiens, UniProt P52333)
# In short: as §1
# STK36 = STK36 (Homo sapiens, UniProt Q9NRP7)
# STK36, sequence (Q9NRP7 whole entry): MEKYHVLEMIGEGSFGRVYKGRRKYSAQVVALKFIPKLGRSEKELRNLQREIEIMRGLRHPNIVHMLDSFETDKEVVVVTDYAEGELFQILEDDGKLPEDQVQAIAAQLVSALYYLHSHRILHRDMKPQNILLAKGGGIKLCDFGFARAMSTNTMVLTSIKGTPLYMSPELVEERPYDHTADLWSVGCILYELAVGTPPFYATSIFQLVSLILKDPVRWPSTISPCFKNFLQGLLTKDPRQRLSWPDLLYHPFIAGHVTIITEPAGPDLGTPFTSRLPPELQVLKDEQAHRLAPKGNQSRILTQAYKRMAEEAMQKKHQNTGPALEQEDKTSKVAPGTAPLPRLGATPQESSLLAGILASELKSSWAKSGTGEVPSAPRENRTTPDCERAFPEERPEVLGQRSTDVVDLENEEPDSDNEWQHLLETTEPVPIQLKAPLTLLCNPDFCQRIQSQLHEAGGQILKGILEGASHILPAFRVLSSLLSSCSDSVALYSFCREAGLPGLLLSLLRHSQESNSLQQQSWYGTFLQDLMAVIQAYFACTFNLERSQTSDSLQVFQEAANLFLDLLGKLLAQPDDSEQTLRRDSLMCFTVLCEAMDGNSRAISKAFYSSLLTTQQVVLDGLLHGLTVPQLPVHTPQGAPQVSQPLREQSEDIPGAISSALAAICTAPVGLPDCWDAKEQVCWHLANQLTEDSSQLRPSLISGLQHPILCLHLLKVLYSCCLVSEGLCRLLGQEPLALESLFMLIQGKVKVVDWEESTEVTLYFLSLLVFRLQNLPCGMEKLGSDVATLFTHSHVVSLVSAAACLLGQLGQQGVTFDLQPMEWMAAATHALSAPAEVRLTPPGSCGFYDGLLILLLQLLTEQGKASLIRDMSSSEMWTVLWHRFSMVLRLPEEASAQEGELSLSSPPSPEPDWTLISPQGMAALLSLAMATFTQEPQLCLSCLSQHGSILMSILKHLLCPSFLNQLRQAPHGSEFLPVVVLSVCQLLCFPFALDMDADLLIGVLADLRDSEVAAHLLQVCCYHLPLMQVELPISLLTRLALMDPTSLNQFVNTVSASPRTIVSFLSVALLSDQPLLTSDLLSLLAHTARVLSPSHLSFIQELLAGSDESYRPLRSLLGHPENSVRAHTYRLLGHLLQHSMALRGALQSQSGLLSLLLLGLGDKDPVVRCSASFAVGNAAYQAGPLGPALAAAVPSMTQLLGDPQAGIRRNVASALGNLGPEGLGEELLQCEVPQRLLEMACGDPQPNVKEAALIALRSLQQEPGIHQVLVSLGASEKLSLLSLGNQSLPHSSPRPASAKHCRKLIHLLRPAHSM
# In short: as §1
# STK35 = STK35 (Homo sapiens, UniProt Q8TDR2)
# In short: as §1
# NTRK2 = NTRK2 (Homo sapiens, UniProt Q16620)
# In short: as §1
# RPS6KA3 = RPS6KA3 (Homo sapiens, UniProt P51812)
# In short: as §1
# FGFR2 = FGFR2 (Homo sapiens, UniProt P21802)
# In short: as §1
# HIPK2 = HIPK2 (Homo sapiens, UniProt Q9H2X6)
# In short: as §1
# MAP3K19 = MAP3K19 (Homo sapiens, UniProt Q56UN5)
# In short: as §1
# LRRK2 = LRRK2 (Homo sapiens, UniProt Q5S007)
# In short: as §1
# IRAK3 = IRAK3 (Homo sapiens, UniProt Q9Y616)
# In short: as §1
# EPHB1 = EPHB1 (Homo sapiens, UniProt P54762)
# In short: as §1
# SLK = SLK (Homo sapiens, UniProt Q9H2G2)
# In short: as §1
# DYRK1B = DYRK1B (Homo sapiens, UniProt Q9Y463)
# In short: as §1
# AURKA = AURKA (Homo sapiens, UniProt O14965)
# AURKA, sequence (O14965 whole entry): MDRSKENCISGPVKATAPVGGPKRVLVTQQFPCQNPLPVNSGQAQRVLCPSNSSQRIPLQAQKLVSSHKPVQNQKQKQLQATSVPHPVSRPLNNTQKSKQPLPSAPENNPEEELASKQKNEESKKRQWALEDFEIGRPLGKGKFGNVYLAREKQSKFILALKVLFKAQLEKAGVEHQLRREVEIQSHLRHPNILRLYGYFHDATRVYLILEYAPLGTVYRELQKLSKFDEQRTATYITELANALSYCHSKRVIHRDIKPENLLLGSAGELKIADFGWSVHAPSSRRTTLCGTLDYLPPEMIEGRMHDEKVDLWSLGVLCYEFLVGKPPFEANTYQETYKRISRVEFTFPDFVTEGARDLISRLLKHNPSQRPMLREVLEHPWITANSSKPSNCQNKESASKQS
# In short: as §1
# CAMK2A = CAMK2A (Homo sapiens, UniProt Q9UQM7)
# In short: as §1
# SRMS = SRMS (Homo sapiens, UniProt Q9H3Y6)
# In short: as §1
# MAPK6 = MAPK6 (Homo sapiens, UniProt Q16659)
# In short: as §1
# AAK1 = AAK1 (Homo sapiens, UniProt Q2M2I8)
# AAK1, sequence (Q2M2I8 whole entry): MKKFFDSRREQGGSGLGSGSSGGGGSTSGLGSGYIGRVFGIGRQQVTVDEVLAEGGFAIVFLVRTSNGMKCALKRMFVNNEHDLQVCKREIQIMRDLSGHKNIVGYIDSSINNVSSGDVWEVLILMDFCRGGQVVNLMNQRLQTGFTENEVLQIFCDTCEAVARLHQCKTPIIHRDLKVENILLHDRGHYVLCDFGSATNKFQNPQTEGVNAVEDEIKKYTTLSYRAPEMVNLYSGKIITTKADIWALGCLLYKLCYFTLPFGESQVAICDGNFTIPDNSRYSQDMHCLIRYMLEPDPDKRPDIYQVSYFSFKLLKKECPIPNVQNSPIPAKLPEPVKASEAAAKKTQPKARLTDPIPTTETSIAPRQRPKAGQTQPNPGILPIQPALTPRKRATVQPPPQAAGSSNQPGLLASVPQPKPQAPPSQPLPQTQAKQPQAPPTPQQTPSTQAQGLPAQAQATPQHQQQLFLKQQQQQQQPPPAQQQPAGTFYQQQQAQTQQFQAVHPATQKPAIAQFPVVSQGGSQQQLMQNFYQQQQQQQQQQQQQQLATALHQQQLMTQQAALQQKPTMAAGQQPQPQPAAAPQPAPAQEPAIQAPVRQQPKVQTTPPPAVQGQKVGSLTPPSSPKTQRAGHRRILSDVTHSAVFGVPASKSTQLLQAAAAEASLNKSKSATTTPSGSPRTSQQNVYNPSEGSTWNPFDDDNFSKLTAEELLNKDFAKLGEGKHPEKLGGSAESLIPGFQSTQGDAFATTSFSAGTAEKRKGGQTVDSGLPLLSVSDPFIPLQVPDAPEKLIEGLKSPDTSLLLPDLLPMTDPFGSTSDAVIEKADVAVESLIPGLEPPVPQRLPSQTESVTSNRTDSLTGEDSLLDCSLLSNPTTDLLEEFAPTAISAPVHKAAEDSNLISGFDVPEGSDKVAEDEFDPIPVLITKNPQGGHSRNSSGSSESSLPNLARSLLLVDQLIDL
# In short: as §1
# GAK = GAK (Homo sapiens, UniProt O14976)
# GAK, sequence (O14976 whole entry): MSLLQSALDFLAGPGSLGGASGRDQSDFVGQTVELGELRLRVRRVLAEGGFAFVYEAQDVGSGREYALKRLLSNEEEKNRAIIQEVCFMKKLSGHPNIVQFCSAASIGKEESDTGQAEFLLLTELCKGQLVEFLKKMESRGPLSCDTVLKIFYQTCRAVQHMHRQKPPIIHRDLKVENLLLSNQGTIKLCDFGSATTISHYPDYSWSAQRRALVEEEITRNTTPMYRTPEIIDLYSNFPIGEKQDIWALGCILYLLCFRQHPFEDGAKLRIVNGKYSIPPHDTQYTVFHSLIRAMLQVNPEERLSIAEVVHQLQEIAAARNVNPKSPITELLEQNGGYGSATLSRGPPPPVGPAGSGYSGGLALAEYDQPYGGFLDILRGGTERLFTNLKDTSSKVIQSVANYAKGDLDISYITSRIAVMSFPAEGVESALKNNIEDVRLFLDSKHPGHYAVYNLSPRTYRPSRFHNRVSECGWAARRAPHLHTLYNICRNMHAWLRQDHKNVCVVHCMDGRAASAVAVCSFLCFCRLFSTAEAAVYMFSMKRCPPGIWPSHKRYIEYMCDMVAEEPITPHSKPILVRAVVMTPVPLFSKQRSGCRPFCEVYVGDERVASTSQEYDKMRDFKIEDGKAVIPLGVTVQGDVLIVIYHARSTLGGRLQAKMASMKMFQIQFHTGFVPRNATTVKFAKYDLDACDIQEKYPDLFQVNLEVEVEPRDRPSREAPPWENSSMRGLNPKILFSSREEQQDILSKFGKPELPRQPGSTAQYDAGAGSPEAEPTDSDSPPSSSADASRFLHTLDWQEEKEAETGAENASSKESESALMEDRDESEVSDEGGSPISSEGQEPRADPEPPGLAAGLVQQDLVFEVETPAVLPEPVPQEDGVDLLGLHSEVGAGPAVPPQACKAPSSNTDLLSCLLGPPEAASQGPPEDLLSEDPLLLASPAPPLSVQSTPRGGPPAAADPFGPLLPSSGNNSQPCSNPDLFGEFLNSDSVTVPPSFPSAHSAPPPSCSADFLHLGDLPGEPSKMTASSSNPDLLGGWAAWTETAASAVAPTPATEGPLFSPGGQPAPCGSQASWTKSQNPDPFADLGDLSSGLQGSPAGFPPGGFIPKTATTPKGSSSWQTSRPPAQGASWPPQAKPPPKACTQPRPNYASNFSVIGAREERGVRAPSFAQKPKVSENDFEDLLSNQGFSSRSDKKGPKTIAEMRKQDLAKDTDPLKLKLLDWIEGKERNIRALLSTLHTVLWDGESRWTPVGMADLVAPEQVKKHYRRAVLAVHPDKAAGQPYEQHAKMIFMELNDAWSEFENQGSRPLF
# In short: as §1
# MELK = MELK (Homo sapiens, UniProt Q14680)
# In short: as §1
# CSNK1G2 = CSNK1G2 (Homo sapiens, UniProt P78368)
# In short: as §1
# SBK3 = SBK3 (Homo sapiens, UniProt P0C264)
# In short: as §1
# EPHA7 = EPHA7 (Homo sapiens, UniProt Q15375)
# In short: as §1
# MYLK3 = MYLK3 (Homo sapiens, UniProt Q32MK0)
# In short: as §1
# MAPK8 = MAPK8 (Homo sapiens, UniProt P45983)
# MAPK8, sequence (P45983 whole entry): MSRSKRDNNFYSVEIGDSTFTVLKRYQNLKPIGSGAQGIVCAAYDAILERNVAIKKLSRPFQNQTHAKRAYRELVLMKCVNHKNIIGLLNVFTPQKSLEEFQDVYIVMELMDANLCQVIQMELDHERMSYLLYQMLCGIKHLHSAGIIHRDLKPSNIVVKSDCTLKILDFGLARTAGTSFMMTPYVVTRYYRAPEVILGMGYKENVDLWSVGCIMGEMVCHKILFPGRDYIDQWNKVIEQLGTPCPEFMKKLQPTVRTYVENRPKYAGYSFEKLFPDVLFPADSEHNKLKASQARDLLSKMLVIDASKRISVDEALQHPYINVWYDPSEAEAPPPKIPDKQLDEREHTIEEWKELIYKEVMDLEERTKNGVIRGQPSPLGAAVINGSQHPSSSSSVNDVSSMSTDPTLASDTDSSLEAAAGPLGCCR
# In short: as §1
# IRAK4, sequence (Q9NWZ3 whole entry): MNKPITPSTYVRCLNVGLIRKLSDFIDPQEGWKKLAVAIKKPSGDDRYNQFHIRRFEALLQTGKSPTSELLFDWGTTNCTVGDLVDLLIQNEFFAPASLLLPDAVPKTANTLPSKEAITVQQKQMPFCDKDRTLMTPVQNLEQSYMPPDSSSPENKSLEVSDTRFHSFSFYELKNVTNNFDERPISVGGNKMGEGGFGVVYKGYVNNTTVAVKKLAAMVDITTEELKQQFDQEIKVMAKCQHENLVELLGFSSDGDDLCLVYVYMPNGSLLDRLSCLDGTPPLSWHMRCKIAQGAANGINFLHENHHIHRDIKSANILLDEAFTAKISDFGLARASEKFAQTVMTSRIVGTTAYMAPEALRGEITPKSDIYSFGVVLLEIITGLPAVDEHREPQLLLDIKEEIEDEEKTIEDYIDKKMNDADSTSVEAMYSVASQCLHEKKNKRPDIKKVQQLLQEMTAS
structure (smiles),measurement,setting,value
"CN1C(=O)[C@@H](N2CCc3c(nn(Cc4ccccc4)c3C(N)=O)C2=O)COc2cc(Cl)ccc21 [Compound 10, (S)-2-benzyl-6-(8-chloro-5-methyl-4-oxo-2,3,4,5-tetrahydrobenzo[b][1,4]oxazepin-3-yl)-7-oxo-4,5,6,7-tetrahydro-2H-pyrazolo[3,4-c]pyridine-3-carboxamide]",receptor occupancy at 1 µM,IRAK4,-8.73%
same,receptor occupancy at 1 µM,PRKCE,3.9%
same,receptor occupancy at 1 µM,CDKL2,-3.58%
same,receptor occupancy at 1 µM,FYN,5.88%
same,receptor occupancy at 1 µM,MYLK2,4.26%
same,receptor occupancy at 1 µM,ICK,3.76%
same,receptor occupancy at 1 µM,FGFR3,22.5%
same,receptor occupancy at 1 µM,AURKC,5.08%
same,receptor occupancy at 1 µM,PAK4,3.71%
same,receptor occupancy at 1 µM,CDK20,0.735%
same,receptor occupancy at 1 µM,CSNK2A1,3.96%
same,receptor occupancy at 1 µM,CAMK2D,5.75%
same,receptor occupancy at 1 µM,JAK3,4.78%
same,receptor occupancy at 1 µM,STK36,-3.44%
same,receptor occupancy at 1 µM,STK35,1.56%
same,receptor occupancy at 1 µM,NTRK2,1.19%
same,receptor occupancy at 1 µM,RPS6KA3,-0.166%
same,receptor occupancy at 1 µM,FGFR2,-6.21%
same,receptor occupancy at 1 µM,HIPK2,16%
same,receptor occupancy at 1 µM,MAP3K19,10.7%
same,receptor occupancy at 1 µM,LRRK2,7.3%
same,receptor occupancy at 1 µM,IRAK3,-5.37%
same,receptor occupancy at 1 µM,EPHB1,0.755%
same,receptor occupancy at 1 µM,SLK,19%
same,receptor occupancy at 1 µM,DYRK1B,-4.33%
same,receptor occupancy at 1 µM,AURKA,-7.12%
same,receptor occupancy at 1 µM,CAMK2A,-6.57%
same,receptor occupancy at 1 µM,SRMS,10.1%
same,receptor occupancy at 1 µM,MAPK6,-8.43%
same,receptor occupancy at 1 µM,AAK1,0.814%
same,receptor occupancy at 1 µM,GAK,0.954%
same,receptor occupancy at 1 µM,MELK,13.7%
same,receptor occupancy at 1 µM,CSNK1G2,3.57%
same,receptor occupancy at 1 µM,SBK3,-4.46%
same,receptor occupancy at 1 µM,EPHA7,-2.24%
same,receptor occupancy at 1 µM,MYLK3,3.25%
same,receptor occupancy at 1 µM,MAPK8,-11.5%
